{"source": "BindingDB's records for doi:10.1021/jm030084x", "about": "(University of Illinois At Urbana-Champaign, 2003)", "biological_target": "farnesyl diphosphate synthase (Leishmania major)", "assay": "Inhibitory activity against Leishmania major Farnesyl-diphosphatesynthase (FPP synthase)", "data": [{"smiles": "Cc1cc(C)nc(NC(P(=O)(O)O)P(=O)(O)O)c1", "note": "[(4,6-dimethyl-2-pyridinyl)-aminomethylene-1,1-bisphosphonate]", "values": [{"measurement": "IC50", "value": "> 100", "unit": "µM"}]}, {"smiles": "O=P(O)(O)C(Nc1ccc(Cl)nc1)P(=O)(O)O", "note": "[[(6-Chloro-pyridin-3-ylamino)-phosphono-methyl]-phosphonic acid]", "values": [{"measurement": "IC50", "value": "> 100", "unit": "µM"}]}]}
